Assay results as given in ChEMBL document CHEMBL3808342, “Discovery and optimization of a novel series of highly CNS penetrant M4 PAMs based on a 5,6-dimethyl-4-(piperidin-1-yl)thieno[2,3-d]pyrimidine core” (Bioorg Med Chem Lett, 2016).

Legend:
[1] = biological target: T1, Muscarinic acetylcholine receptor M4 (Homo sapiens) (UniProt P08173); assay: Positive allosteric modulation of human M4 receptor expressed in CHO cells coexpressing Gqi5 by calcium mobilization assay relative to acetylcholine; type: functional, cell-based
T1 sequence (whole entry): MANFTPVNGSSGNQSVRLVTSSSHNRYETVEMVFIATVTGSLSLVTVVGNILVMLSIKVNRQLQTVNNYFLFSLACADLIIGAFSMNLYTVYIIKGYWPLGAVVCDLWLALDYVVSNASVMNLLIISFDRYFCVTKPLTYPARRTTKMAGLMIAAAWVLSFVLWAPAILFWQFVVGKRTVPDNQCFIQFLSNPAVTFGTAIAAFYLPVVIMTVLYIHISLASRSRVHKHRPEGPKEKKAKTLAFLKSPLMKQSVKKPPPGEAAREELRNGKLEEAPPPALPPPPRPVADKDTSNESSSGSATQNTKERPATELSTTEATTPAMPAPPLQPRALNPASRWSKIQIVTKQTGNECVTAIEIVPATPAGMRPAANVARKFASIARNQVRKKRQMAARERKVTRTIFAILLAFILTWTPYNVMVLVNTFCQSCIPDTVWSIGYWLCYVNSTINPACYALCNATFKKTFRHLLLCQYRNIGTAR

[2] = biological target: T2, Muscarinic acetylcholine receptor M4 (Homo sapiens, UniProt P08173); assay: Positive allosteric modulation of human M4 receptor expressed in CHO cells coexpressing Gqi5 by calcium mobilization assay; type: functional, cell-based; conditions: read-out: EC50
T2 sequence (P08173 whole entry): T1 sequence (whole entry)

[3] = biological target: T1, Muscarinic acetylcholine receptor M4 (Homo sapiens); assay: Antagonist activity at human M4 receptor expressed in CHO cells coexpressing Gqi5 assessed as acetylcholine-induced calcium mobilization; type: functional, cell-based; design: scale not given: the % may be the effect or the level left
[4] = Fraction unbound in human plasma; type: ADME, cell-free
[5] = Ratio of brain to plasma partition coefficient in Sprague-Dawley rat at 0.2 to 0.25 mg/kg, iv administered as cassette dose after 0.25 hrs; type: ADME, organism-based; conditions: for Kp at 0.25 h: Sprague-Dawley, brain and plasma; for Kp: brain, 0.25 h
[6] = biological target: T2, Muscarinic acetylcholine receptor M4; assay: Antagonist activity at human M4 receptor expressed in CHO cells coexpressing Gqi5 by calcium mobilization assay; type: functional, cell-based
[7] = (§1) Fraction unbound in rat plasma; type: ADME, cell-free
[8] = Ratio of unbound brain-to-plasma concentration in Sprague-Dawley rat at 0.2 to 0.25 mg/kg, iv administered as cassette dose after 0.25 hrs; type: ADME, organism-based
[9] = tested on: Plasma; assay: as §1; type: ADME, cell-free
[10] = biological target: T3, Muscarinic acetylcholine receptor M2 (Homo sapiens, UniProt P08172); assay: Positive allosteric modulation of human M2
T3 sequence (P08172 whole entry): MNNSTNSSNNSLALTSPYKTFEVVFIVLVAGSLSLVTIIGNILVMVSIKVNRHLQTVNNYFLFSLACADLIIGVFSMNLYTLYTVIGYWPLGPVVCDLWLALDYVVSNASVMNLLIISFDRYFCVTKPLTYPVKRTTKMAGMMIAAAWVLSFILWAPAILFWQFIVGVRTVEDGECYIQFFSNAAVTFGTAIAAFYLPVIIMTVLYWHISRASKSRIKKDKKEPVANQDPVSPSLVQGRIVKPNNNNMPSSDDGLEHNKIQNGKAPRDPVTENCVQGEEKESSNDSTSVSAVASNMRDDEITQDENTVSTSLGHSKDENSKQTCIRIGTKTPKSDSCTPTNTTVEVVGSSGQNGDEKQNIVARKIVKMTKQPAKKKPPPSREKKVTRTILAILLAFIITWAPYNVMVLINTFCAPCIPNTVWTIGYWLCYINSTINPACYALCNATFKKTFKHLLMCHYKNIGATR

[11] = biological target: T4, Muscarinic acetylcholine receptor M1 (Homo sapiens, UniProt P11229); assay: Positive allosteric modulation of human M1 receptor expressed in CHOK1 cells by calcium mobilization assay
T4 sequence (P11229 whole entry): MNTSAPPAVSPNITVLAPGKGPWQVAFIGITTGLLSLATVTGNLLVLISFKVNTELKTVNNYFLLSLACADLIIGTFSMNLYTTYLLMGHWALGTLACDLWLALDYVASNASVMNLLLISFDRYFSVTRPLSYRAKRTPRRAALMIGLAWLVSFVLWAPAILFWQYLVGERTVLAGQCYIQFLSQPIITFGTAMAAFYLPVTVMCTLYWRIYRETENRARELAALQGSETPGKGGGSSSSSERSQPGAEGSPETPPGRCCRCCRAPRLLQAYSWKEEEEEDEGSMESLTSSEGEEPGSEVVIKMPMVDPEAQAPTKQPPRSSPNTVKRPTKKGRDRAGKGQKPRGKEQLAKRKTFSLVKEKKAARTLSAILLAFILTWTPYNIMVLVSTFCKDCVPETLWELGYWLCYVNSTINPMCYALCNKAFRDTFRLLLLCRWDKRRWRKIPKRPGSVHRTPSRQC

[12] = biological target: T5, Muscarinic acetylcholine receptor M4 (Rattus norvegicus) (UniProt P08485); assay: Positive allosteric modulation of rat M4 receptor expressed in CHO cells coexpressing Gqi5 by calcium mobilization assay relative to acetylcholine; type: functional, cell-based
T5 sequence (whole entry): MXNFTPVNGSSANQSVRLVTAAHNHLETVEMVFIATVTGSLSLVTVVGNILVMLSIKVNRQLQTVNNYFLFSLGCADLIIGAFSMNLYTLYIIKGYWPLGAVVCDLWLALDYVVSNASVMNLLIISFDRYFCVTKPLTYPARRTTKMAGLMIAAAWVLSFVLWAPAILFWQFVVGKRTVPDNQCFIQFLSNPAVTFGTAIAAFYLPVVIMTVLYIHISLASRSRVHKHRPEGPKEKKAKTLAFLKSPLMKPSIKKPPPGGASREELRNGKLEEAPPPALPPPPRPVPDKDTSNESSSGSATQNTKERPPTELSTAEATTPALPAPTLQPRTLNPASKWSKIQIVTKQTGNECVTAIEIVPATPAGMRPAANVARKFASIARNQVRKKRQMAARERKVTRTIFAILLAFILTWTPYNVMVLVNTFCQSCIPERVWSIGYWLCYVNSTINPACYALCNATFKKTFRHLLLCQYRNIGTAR

[13] = biological target: T6, Muscarinic acetylcholine receptor M5 (Homo sapiens, UniProt P08912); assay: Positive allosteric modulation of human M5 receptor expressed in CHOK1 cells by calcium mobilization assay; type: functional, cell-based, CHO-K1
T6 sequence (P08912 whole entry): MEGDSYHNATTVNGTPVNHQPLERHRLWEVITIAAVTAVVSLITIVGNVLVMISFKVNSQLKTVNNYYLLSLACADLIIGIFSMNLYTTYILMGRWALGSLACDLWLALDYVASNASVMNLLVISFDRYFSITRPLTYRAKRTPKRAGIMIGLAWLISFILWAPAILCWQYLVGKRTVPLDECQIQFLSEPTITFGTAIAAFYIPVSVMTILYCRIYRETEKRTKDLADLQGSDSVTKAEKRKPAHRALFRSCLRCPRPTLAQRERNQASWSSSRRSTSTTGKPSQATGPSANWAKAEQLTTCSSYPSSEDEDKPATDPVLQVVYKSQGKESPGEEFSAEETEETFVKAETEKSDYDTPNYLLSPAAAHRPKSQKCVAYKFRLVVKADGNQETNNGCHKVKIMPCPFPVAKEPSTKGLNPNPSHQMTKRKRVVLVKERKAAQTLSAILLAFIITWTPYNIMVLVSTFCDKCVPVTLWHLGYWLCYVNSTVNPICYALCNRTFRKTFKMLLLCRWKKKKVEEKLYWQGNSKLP

[14] = biological target: T7, Muscarinic acetylcholine receptor M4 (Rattus norvegicus, UniProt P08485); assay: Positive allosteric modulation of rat M4 receptor expressed in CHO cells coexpressing Gqi5 by calcium mobilization assay; type: functional, cell-based
T7 sequence (P08485 whole entry): T5 sequence (whole entry)

[15] = biological target: Muscarinic acetylcholine receptor M3 (Homo sapiens, UniProt P20309); assay: Positive allosteric modulation of human M3
Muscarinic acetylcholine receptor M3, sequence (P20309 whole entry): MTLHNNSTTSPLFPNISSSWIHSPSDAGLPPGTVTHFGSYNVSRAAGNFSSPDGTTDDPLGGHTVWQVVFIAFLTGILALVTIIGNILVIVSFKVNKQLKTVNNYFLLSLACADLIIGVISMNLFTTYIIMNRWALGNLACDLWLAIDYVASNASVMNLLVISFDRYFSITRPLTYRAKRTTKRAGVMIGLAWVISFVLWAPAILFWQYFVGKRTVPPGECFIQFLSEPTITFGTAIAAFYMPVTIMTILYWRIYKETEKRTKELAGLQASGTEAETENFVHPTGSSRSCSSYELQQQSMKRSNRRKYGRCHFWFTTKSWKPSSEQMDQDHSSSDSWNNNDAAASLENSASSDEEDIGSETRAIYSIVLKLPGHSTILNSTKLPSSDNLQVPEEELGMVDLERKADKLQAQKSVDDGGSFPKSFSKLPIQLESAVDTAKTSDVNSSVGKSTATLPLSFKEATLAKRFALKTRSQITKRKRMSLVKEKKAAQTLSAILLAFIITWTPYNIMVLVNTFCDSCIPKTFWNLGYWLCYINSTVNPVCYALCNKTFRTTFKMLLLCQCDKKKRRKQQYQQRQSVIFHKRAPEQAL

[16] = tested on: Brain; assay: Fraction unbound in rat brain homogenate; type: ADME, tissue-based
[17] = Drug metabolism in rat hepatic microsomes assessed as hydroxylation of 5,6-dimethyl moiety; type: ADME, Liver, Microsome
[18] = Drug metabolism in human hepatic microsomes assessed as compound oxidation; type: ADME, Liver, Microsome

| SMILES | %max [1] [%] | EC50 [2] [nM] | K(p,uu,brain) [8] | Kp [5] | other results |
| --- | --- | --- | --- | --- | --- |
| Cc1sc2ncnc(N3CCC(C(=O)Nc4cc(Cl)ccc4Cl)CC3)c2c1C | 69 | 3800 |  |  |  |
| Cc1sc2ncnc(N3CCC(C(=O)N4CCCc5cc(S(C)(=O)=O)ccc54)CC3)c2c1C | 69 | 960 |  |  |  |
| CCCN(c1ccc(C)nc1)C1CCN(c2ncnc3sc(C)c(C)c23)CC1 |  |  |  |  | Activity [3]: 9.3%; Fu [4]: > 0.1; Kp at 0.25 h [5]: 0.2; IC50 [6]: 2400 nM; fraction unbound [7]: > 0.1 |
| Cc1sc2ncnc(N3CCC(Oc4ccc5c(c4)CCO5)CC3)c2c1C | 74 | 2300 | 1.38 | 1.25 |  |
| Cc1ccc(OC2CCN(c3cc(C)nc4ccc(F)cc34)CC2)cn1 | 64 | 690 | 18.2 | 21.4 |  |
| CCCCN(c1ccc(C)nc1)C1CCN(c2ncnc3sc(C)c(C)c23)CC1 |  |  |  |  | Activity [3]: 8.7%; Fu [4]: > 0.1; Kp at 0.25 h [5]: 0.2; IC50 [6]: 1500 nM; fraction unbound [7]: > 0.1 |
| Cc1sc2ncnc(N3CCC(C(=O)Nc4ccc(C(N)=O)cc4)CC3)c2c1C | 56 | 390 |  |  |  |
| Cc1sc2ncnc(N3CCC(C(=O)Nc4ccc(N5CCNC5=O)cc4)CC3)c2c1C | 40 | 6200 |  |  |  |
| Cc1sc2ncnc(N3CCC(C(=O)N4CCCC4)CC3)c2c1C | 68 | 1100 | 0.45 | 0.45 | Fu [4]: 0.06; Fu [9]: 0.04 |
| Cc1ccc(OC2CCN(c3ncnc4ccc(F)cc34)CC2)cn1 | 62 | 600 | > 10 | 11.1 | EC50 [10]: > 10000 nM; Fu [4]: 0.16; EC50 [11]: > 10000 nM; %max [12]: 57%; EC50 [13]: > 10000 nM; EC50 [14]: 950 nM; EC50 [15]: > 10000 nM; Fu [9]: 0.02; Fu [16]: 0.03 |
| Cc1sc2ncnc(N3CCC(C(=O)N4CC[C@H](F)C4)CC3)c2c1C | 79 | 970 | 0.12 | 0.17 | Fu [4]: 0.05; Fu [9]: 0.12 |
| Cc1sc2ncnc(N3CCC(C(=O)Nc4ccc(S(C)(=O)=O)cc4)CC3)c2c1C | 62 | 850 |  |  |  |
| Cc1sc2ncnc(N3CCC(C(=O)Nc4ccc(F)cc4Cl)CC3)c2c1C | 55 | 1600 |  |  |  |
| CNC(=O)c1ccc(NC(=O)C2CCN(c3ncnc4sc(C)c(C)c34)CC2)cc1 | 70 | 570 |  |  |  |
| Cc1sc2ncnc(N3CCC(C(=O)N4CCCC(F)(F)C4)CC3)c2c1C | 60 | 1900 |  |  |  |
| Cc1sc2ncnc(N3CCC(C(=O)NCc4ccc(S(N)(=O)=O)cc4)CC3)c2c1C | 67 | 2300 |  |  |  |
| Cc1sc2ncnc(N3CCC(C(N)=O)CC3)c2c1C | 25 | > 10000 |  |  |  |
| Cc1ccc(OC2CCN(c3ncnc4sc(C)c(C)c34)CC2)cn1 | 65 | 600 | 0.74 | 1.16 | Drug metabolism [17]: metabolite_detected; Drug metabolism [18]: metabolite_detected |
| Cc1sc2ncnc(N3CCC(C(=O)N4CCSCC4)CC3)c2c1C | 75 | 820 |  |  |  |
| Cc1sc2ncnc(N3CCC(Oc4ccc(Cl)nc4)CC3)c2c1C | 64 | 4300 | 0.17 | 2.56 |  |
| Cc1ncc(OC2CCN(c3ncnc4sc(C)c(C)c34)CC2)cn1 | 60 | 4400 | 0.65 | 1.77 |  |
| Cc1ccc2ncnc(N3CCC(Oc4ccc(C)nc4)CC3)c2c1 | 49 | 1200 | 0.62 | 0.94 |  |
| Cc1sc2ncnc(N3CCC(C(=O)N4CCOCC4)CC3)c2c1C | 65 | 1700 |  |  |  |
| Cc1ccc(OC2CCN(c3nc(C)nn4ccc(C)c34)CC2)cn1 | 58 | 1100 | 1.95 | 1.42 |  |
| Cc1sc2ncnc(N3CCC(Oc4ccc(F)nc4)CC3)c2c1C | 68 | 1800 | 0.34 | 2.8 |  |
